#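 How tested: cells in 96-well plates exposed to compound for 48 hours at five concentrations. Abbreviation: GI50, concentration required for 50% inhibition of growth.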 The source made the active and inactive calls. Rule as the data show it: active = GI50 up to about 1.1 µM and inactive = higher.
# Experiments:
# Test in all cases: NCI tumour cell line growth inhibition, 48 h
# [1] = system: 786-0
# [2] = system: A549
# [3] = system: CAKI-1
# [4] = system: COLO 205
# [5] = system: DU-145
# [6] = system: HCT-116
# [7] = system: HCT-15
# [8] = system: HOP-62
# [9] = system: MDA-N
# [10] = system: Malme-3M
# [11] = system: NCI-H226
# [12] = system: OVCAR-4
# [13] = system: OVCAR-8
# [14] = system: SF-268
# [15] = system: SK-MEL-28
# [16] = system: SK-MEL-2
# [17] = system: SK-MEL-5
# [18] = system: UACC-62
# [19] = system: UO-31
# [20] = system: EKVX
Compound,GI50 [1],GI50 [2],GI50 [3],GI50 [4],GI50 [5],GI50 [6],GI50 [7],GI50 [8],GI50 [9],GI50 [10],GI50 [11],GI50 [12],GI50 [13],GI50 [14],GI50 [15],GI50 [16],GI50 [17],GI50 [18],GI50 [19],GI50 [20]
O=[N+]([O-])c1ccc(N2N=C(c3ccc4ccccc4c3O)CC2c2ccc(Cl)cc2)c([N+](=O)[O-])c1 (stereo not given),44 µM (inactive),30.4 µM (inactive),> 100 µM (inactive),29.6 µM (inactive),48.8 µM (inactive),28 µM (inactive),30.3 µM,41.2 µM (inactive),16.7 µM (inactive),21.5 µM (inactive),50.8 µM (inactive),55.1 µM (inactive),37.3 µM (inactive),45.7 µM (inactive),41.8 µM (inactive),33.6 µM (inactive),22.2 µM (inactive),> 100 µM (inactive),> 100 µM (inactive),
S=C(NCc1ccccc1)c1nc[nH]c1C(=S)NCc1ccccc1,5.96 µM (inactive),3.89 µM (inactive),5.47 µM (inactive),3.48 µM (inactive),9.27 µM (inactive),5.64 µM (inactive),3.83 µM,10 µM (inactive),7.74 µM (inactive),11 µM (inactive),1.78 µM (inactive),6.65 µM (inactive),4.49 µM (inactive),6.19 µM (inactive),12.4 µM (inactive),9.08 µM (inactive),,3.2 µM (inactive),,4.34 µM (inactive)
O=C1C(Cl)=C(N2CCN(c3ccccn3)CC2)C(=O)c2c(O)ccc(O)c21,1.25 µM (inactive),6.49 µM (inactive),2.08 µM (inactive),1.43 µM (inactive),3.66 µM (inactive),1.7 µM (inactive),1.12 µM,4.67 µM (inactive),1.21 µM (inactive),1.65 µM (inactive),4.69 µM (inactive),1.59 µM (inactive),2.12 µM (inactive),2.59 µM (inactive),1.9 µM (inactive),,1.42 µM (inactive),0.752 µM (active),1.87 µM (inactive),4.27 µM (inactive)
COC(=O)c1c2c(cc3c1CC1(Cc4cc5c(cc4C1)CCC5)C3)CCC2,> 100 µM (inactive),> 100 µM (inactive),> 100 µM (inactive),,> 100 µM (inactive),> 100 µM (inactive),> 100 µM,> 100 µM (inactive),> 100 µM (inactive),> 100 µM (inactive),,> 100 µM (inactive),> 100 µM (inactive),> 100 µM (inactive),> 100 µM (inactive),> 100 µM (inactive),> 100 µM (inactive),,> 100 µM (inactive),> 100 µM (inactive)
N/C(=N\OC(=O)NC(Cl)=C(Cl)Cl)c1cc(C(F)(F)F)cc(C(F)(F)F)c1,16.2 µM (inactive),15.3 µM (inactive),16.7 µM (inactive),15.7 µM (inactive),13.2 µM (inactive),18.6 µM (inactive),17.3 µM,17.9 µM (inactive),21.5 µM (inactive),23.9 µM (inactive),22.1 µM (inactive),,20.1 µM (inactive),18.7 µM (inactive),17.4 µM (inactive),,26.8 µM (inactive),,18 µM (inactive),13.7 µM (inactive)
CC(Cc1cccc2c1Nc1ccccc1S2)N(C)CCO (stereo not given),> 100 µM (inactive),> 100 µM (inactive),> 100 µM (inactive),> 100 µM (inactive),> 100 µM (inactive),> 100 µM (inactive),> 100 µM,> 100 µM (inactive),> 100 µM (inactive),> 100 µM (inactive),> 100 µM (inactive),> 100 µM (inactive),> 100 µM (inactive),> 100 µM (inactive),> 100 µM (inactive),,> 100 µM (inactive),> 100 µM (inactive),> 100 µM (inactive),> 100 µM (inactive)
C[C@]12CC[C@H](O)CC1=CC[C@@H]1C2CC[C@]2(C)Nc3c(cnn3-c3ccc(F)cc3)CC12 (stereo not given in full),3.09 µM (inactive),52.1 µM (inactive),64.6 µM (inactive),,32 µM (inactive),14.7 µM (inactive),> 100 µM,10.8 µM (inactive),> 53.8 µM (inactive),14.2 µM (inactive),40.9 µM (inactive),19 µM (inactive),23.3 µM (inactive),26.1 µM (inactive),3.49 µM (inactive),,25.2 µM (inactive),14.6 µM (inactive),> 39.4 µM (inactive),79.6 µM (inactive)
O=C(O)C1C2C=CC(C2)C1c1ccccc1 (stereo not given),> 100 µM (inactive),> 100 µM (inactive),> 100 µM (inactive),> 100 µM (inactive),> 100 µM (inactive),> 100 µM (inactive),> 100 µM,> 100 µM (inactive),> 100 µM (inactive),> 100 µM (inactive),> 100 µM (inactive),,> 100 µM (inactive),> 100 µM (inactive),> 100 µM (inactive),31.6 µM (inactive),> 100 µM (inactive),> 100 µM (inactive),> 100 µM (inactive),> 100 µM (inactive)
O=C(CSc1nc2ccc(I)cc2c(=O)n1Cc1ccccc1)NNC(=O)c1ccccc1,8.97 µM (inactive),11.9 µM (inactive),2.89 µM (inactive),18.9 µM (inactive),13.9 µM (inactive),19.7 µM (inactive),16.5 µM,8.02 µM (inactive),25.1 µM (inactive),,3.78 µM (inactive),8.99 µM (inactive),8.3 µM (inactive),6.79 µM (inactive),15.4 µM (inactive),6.08 µM (inactive),10.3 µM (inactive),14.2 µM (inactive),1.15 µM (inactive),4.06 µM (inactive)
C[C@@H]1CCC2C(C)(C)C(/C=C\C=O)C3(C)OC213 (stereo not given in full),28.8 µM (inactive),> 100 µM (inactive),> 100 µM (inactive),25.4 µM (inactive),29.1 µM (inactive),27.9 µM (inactive),25.4 µM,38.9 µM (inactive),26 µM (inactive),24.5 µM (inactive),,54.5 µM (inactive),20.2 µM (inactive),27.3 µM (inactive),44 µM (inactive),42.9 µM (inactive),20.3 µM (inactive),53.2 µM (inactive),52.5 µM (inactive),37.8 µM (inactive)
CCOC(=O)c1nnsc1N/N=C\c1ccc([N+](=O)[O-])cc1,80 µM (inactive),> 100 µM (inactive),,> 100 µM (inactive),> 100 µM (inactive),> 100 µM (inactive),> 100 µM,60 µM (inactive),> 100 µM (inactive),> 100 µM (inactive),> 100 µM (inactive),> 100 µM (inactive),54.7 µM (inactive),77.4 µM (inactive),> 100 µM (inactive),> 100 µM (inactive),> 100 µM (inactive),> 100 µM (inactive),> 100 µM (inactive),> 100 µM (inactive)
C=C1c2nc3ccccc3n2C=C(c2ccccc2)N1c1ccc(OC)cc1,19.5 µM (inactive),18.5 µM (inactive),25.5 µM (inactive),25.4 µM (inactive),26.4 µM (inactive),17.5 µM (inactive),6.9 µM,,49.9 µM (inactive),14.2 µM (inactive),11 µM (inactive),13.7 µM (inactive),13.2 µM (inactive),,,28.6 µM (inactive),11.1 µM (inactive),17.7 µM (inactive),4.52 µM (inactive),23.9 µM (inactive)
COC(=O)C1=C(C(=O)OC)SC(=C2c3ccsc3-c3sccc32)S1,21.4 µM (inactive),37.2 µM (inactive),> 100 µM (inactive),47.5 µM (inactive),> 100 µM (inactive),25.9 µM (inactive),53.7 µM,19.7 µM (inactive),70.3 µM (inactive),43.2 µM (inactive),27.4 µM (inactive),> 10 µM (inactive),29.1 µM (inactive),19.9 µM (inactive),24.3 µM (inactive),,31.9 µM (inactive),26.6 µM (inactive),99.1 µM (inactive),27.3 µM (inactive)
Cc1c2cccc-2c(N(C)C)cc2c1[nH]c1ccccc12,2.97 µM (inactive),3.85 µM (inactive),17.5 µM (inactive),1.65 µM (inactive),14.6 µM (inactive),3.33 µM (inactive),3.12 µM,2.71 µM (inactive),6.56 µM (inactive),3.3 µM (inactive),5.81 µM (inactive),,3.21 µM (inactive),5.13 µM (inactive),2.02 µM (inactive),,5.64 µM (inactive),,2.53 µM (inactive),1.96 µM (inactive)
COc1cc2cc3c4cc(OC)c(OC)cc4cc[n+]3c(C)c2cc1OC [CORALYNE],15.6 µM (inactive),> 100 µM (inactive),67.1 µM (inactive),47.3 µM (inactive),> 100 µM (inactive),> 100 µM (inactive),48.2 µM,,> 100 µM (inactive),60.1 µM (inactive),30.4 µM (inactive),67.5 µM (inactive),> 100 µM (inactive),1.96 µM (inactive),> 100 µM (inactive),> 100 µM (inactive),72.1 µM (inactive),23.4 µM (inactive),> 100 µM (inactive),60.7 µM (inactive)
